Results: ChEMBL document CHEMBL1149988, “Antibody catalyzed hydrolysis of a phosphotriester” (Bioorg Med Chem Lett, 1996)

What was measured:
[1] = Hydrolysis kinetic catalysis constant was measured for the hydrolysis catalyzed by antibody 15C5
[2] = Catalysis kinetic constant was measured for the hydrolysis catalyzed by antibody 15C5
[3] = Michaelis-Menten kinetics was measured for the hydrolysis catalyzed by antibody 15C5

CC(=O)NC1COP(=O)(Oc2ccc([N+](=O)[O-])cc2)OC1 (stereo not drawn)
Kuncat [1]: 2.1 min⁻¹ | k cat [2]: 0.0442 s⁻¹ | Km [3]: 87 µM
